{
  "source": "paper doi:10.1101/2023.05.04.537313v1",
  "about": "(biorxiv, 2023)",
  "molecular_target": "T1, SLC1A3 (Homo sapiens, UniProt P43003)",
  "T1 construct": "overexpressed in HEK293-JI cells co-expressing iAspSnFR",
  "T1 sequence (P43003 whole entry)": "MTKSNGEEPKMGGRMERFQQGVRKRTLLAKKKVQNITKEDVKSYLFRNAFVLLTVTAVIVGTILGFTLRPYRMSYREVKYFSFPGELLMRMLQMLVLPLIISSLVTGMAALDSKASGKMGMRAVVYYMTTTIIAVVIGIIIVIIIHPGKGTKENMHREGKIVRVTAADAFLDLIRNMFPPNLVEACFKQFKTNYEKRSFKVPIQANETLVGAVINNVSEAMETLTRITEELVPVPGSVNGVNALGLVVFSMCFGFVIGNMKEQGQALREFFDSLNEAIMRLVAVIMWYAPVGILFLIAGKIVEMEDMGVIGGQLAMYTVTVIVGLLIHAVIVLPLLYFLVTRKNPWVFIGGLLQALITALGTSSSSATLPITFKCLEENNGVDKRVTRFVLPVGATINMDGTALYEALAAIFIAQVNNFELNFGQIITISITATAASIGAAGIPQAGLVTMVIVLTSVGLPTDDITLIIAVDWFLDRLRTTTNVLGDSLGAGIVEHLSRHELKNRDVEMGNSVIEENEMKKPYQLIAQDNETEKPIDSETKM",
  "assay": "cellular uptake read by iAspSnFR, flow cytometry",
  "assay_type": "cell-based",
  "details": "range is the 95% CI, no central value printed; 3 h starved cells, 30 min incubation; first (TFB-TBOA-sensitive) phase of a biphasic curve; read-out: K0.5",
  "data": [
    {"smiles": "N[C@@H](CC(=O)O)C(=O)O", "note": "[aspartate]", "values": [
      {"measurement": "Km", "value": "9 to 47", "unit": "µM"}
    ]}
  ]
}
